The test system of experiment [1] is double transgenic rats engineered to express human renin and human angiotensinogen. The experiment is described as follows: In vivo blood pressure by telemetry in double transgenic rats. Particulars: 6-week-old dTGRs, oral, 4 consecutive days, dosage of 3-10 mg/kg. Also on record: species or system rat. How it is done: Double Transgenic Rats: The efficacy of the renin inhibitors can also be evaluated in vivo in double transgenic rats engineered to express human renin and human angiotensinogen (Bohlender J, Fukamizu A, Lippoldt A, Nomura T, Dietz R, Menard J, Murakami K, Luft F C, Ganten D. High human renin hypertension in transgenic rats. Hypertension 1997, 29, 428-434).
Experiments were conducted in 6-week-old double transgenic rats (dTGRs). The model has been described in detail earlier. […] The human angiotensinogen construct made up the entire human angiotensinogen gene (5 exons and 4 introns), with 1.3 kB of 5′-flanking and 2.4 kB of 3′-flanking sequences. The rats were purchased from RCC Ltd (Füllinsdorf, Switzerland). Radio telemetry transmitters were surgically implanted at 4 weeks of age. The telemetry system provided 24-h recordings of systolic, mean, diastolic arterial pressure (SAP, MAP, DAP, respectively) and heart rate (HR). Beginning on day 42, animals were transferred to telemetry cages. A 24 h telemetry reading was obtained. Rats were then dosed orally on the following 4 consecutive days (days 43-46). The rats were monitored continuously and allowed free access to standard 0.3%-sodium rat chow and drinking water.

The target in experiment [2] is T1, trypsin-activated recombinant human renin (Homo sapiens, UniProt P00797).
T1 sequence (P00797 67-406): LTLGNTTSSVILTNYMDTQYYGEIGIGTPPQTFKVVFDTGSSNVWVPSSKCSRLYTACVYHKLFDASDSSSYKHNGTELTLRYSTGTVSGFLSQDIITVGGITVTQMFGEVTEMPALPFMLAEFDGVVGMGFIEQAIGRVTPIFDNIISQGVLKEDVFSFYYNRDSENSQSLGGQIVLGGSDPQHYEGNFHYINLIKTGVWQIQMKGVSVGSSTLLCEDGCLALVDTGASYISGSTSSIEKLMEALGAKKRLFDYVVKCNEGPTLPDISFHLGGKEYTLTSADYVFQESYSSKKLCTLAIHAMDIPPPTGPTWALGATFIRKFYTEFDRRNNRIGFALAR
The experiment in a line: In vitro renin inhibition, fluorescence of internally quenched peptide substrate. The class given is biochemical. Particulars: fluorogenic peptide substrate, pH 7.0, rt. How it is done: The sequence of this peptide corresponds to the sequence of human angiotensinogen. The following test protocol was used. All reactions were carried out in a flat bottom white opaque microtiter plate. A 4 μL aliquot of 400 μM renin substrate (DABCYL-γ-[…]) in 192 μl, assay buffer (50 mM BES, 150 mM NaCl, 0.25 mg/mL bovine serum albumin, pH7.0) was added to 4 μl, of test compound in DMSO at various concentrations ranging from 10 μM to 1 nM final concentrations. Next, 100 μL of trypsin-activated recombinant human renin (final enzyme concentration of 0.2-2 nM) in assay buffer was added, and the solution was mixed by pipetting. The increase in fluorescence at 495 nm (excitation at 340 nm) was measured for 60-360 minutes at rt using a Perkin-Elmer Fusion microplate reader. The slope of a linear portion of the plot of fluorescence-increase as a function of time was then determined, and the rate is used for calculating percent inhibition in relation to uninhibited control. […] (Wang G. T. et al. Anal. Biochem. 1993, 210, 351; Nakamura, N. et al. J. Biochem. (Tokyo) 1991, 109, 741; Murakami, K. et al. Anal Biochem. 1981, 110, 232).

Experiment [3] addresses T2, plasma renin activity (PRA) (Homo sapiens, UniProt P00797).
T2 construct: pooled mixed-gender human plasma stabilized with EDTA; from tissue; host or cells: pooled mixed-gender human plasma (EDTA)
T2 sequence (P00797 67-406): T1 sequence (P00797 67-406)
The experiment is described as follows: In vitro plasma renin activity (PRA) in human plasma, angiotensin I radioimmunoassay. The class given is biochemical. Particulars: IC50 in pooled human plasma, 37° C., 90 min. The procedure: Incubations mixtures contained in the final volume of 250 μL 95.5 mM N,N-bis(2-hydroxyethyl)-2-aminoethanesulfonic acid, pH 7.0, 8 mM EDTA, 0.1 mM neomycin sulfate, 1 mg/mL sodium azide, 1 mM phenylmethanesulfonyl fluoride, 2% DMSO and 87.3% of pooled mixed-gender human plasma stabilized with EDTA. For plasma batches with low PRA (less than 1 ng/ml/hr) ˜2 pM of recombinant human renin was added to achieve PRA of 3-4 ng/ml/hr. The cleavage of endogenous angiotensinogen in plasma was carried out at 37° C. for 90 min and the product angiotensin I was measured by competitive radioimmunoassay using DiaSorin PRA kit.

From patent US8580823B2, “Piperidine renin inhibitors” (Vitae Pharmaceuticals, Inc., priority 2006, dated 2013) come the findings set out here.

With `CN[C@H](CNC(=O)N1CCC[C@@H]([C@@H](OCCNC(=O)OC)c2cccc(Cl)c2)C1)C[C@H]1CCCOC1` [Compound 7, methyl 2-((R)-(3-chlorophenyl)((R)-1-((S)-2-(methylamino)-3-((R)-tetrahydro-2H-pyran-3-yl)propylcarbamoyl)piperidin-3-yl)methoxy)ethylcarbamate], the “effect in lowering blood pressures (mean arterial blood pressure, FIG. 2)” value in experiment [1] is “significant effect in lowering blood pressures”.

As for `CN[C@H](CNC(=O)N1CCC[C@@H]([C@@H](OCCNC(=O)OC)c2cc(F)cc(Cl)c2)C1)C[C@H]1CCCOC1` [Compound 9, methyl 2-((R)-(3-chloro-5-fluorophenyl)((R)-1-((S)-2-(methylamino)-3-((R)-tetrahydro-2H-pyran-3-yl)propylcarbamoyl)piperidin-3-yl)methoxy)ethylcarbamate], the IC50 in experiment [2] was less than 1 nM; in experiment [3], less than 10 nM.

Regarding `CN[C@H](CNC(=O)N1CCC[C@@H]([C@@H](OCCNC(=O)OC)c2cc(F)cc(F)c2)C1)C[C@H]1CCCOC1` [Compound 10, methyl 2-((R)-(3,5-difluorophenyl)((R)-1-((S)-2-(methylamino)-3-((R)-tetrahydro-2H-pyran-3-yl)propylcarbamoyl)piperidin-3-yl)methoxy)ethylcarbamate], the IC50 in experiment [2] and in experiment [3] was less than 10 nM in each case.

For the compound `CN[C@H](CNC(=O)N1CCC[C@@H]([C@H](OCCNC(=O)OC)c2cc(Cl)ccc2C)C1)C[C@H]1CCCOC1` [Compound 11, methyl 2-((S)-(5-chloro-2-methylphenyl)((R)-1-((S)-2-(methylamino)-3-((R)-tetrahydro-2H-pyran-3-yl)propylcarbamoyl)piperidin-3-yl)methoxy)ethylcarbamate], the half-inhibitory concentration (IC50) in experiment [2] and in experiment [3] was less than 10 nM each time.

In the case of `CCN[C@H](CNC(=O)N1CCC[C@@H]([C@@H](OCCNC(=O)OC)c2cc(Cl)ccc2C)C1)C[C@H]1CCCOC1` [Compound 12, methyl 2-((R)-(5-chloro-2-methylphenyl)((R)-1-((S)-2-(ethylamino)-3-((R)-tetrahydro-2H-pyran-3-yl)propylcarbamoyl)piperidin-3-yl)methoxy)ethylcarbamate], the IC50 in experiment [2] was less than 10 nM.
